Test results reported in patent publication US4153709A, “N-Heterocyclic ureas as immune regulants” (Eli Lilly and Company, priority 1977, dated 1979).
Where “and” joins values, the source holds several entries; their conditions need not be identical. Identical values can stand only once. Like-named read-outs stand apart in the source and are kept apart here.

Columns and labels:
[1] = system: Salmonella typhimurium G46 missense histidine-auxotroph; assay type: cell-based; details: 750 mcg/ml
Protocol: (§1) Compounds found active in the qualitative test were further tested. The culture to be tested was grown to stationary phase in tryptone yeast broth and then diluted to a viable count of about 9×10^7 organisms per milliliter.
Eleven log4 dilutions of the test compound were made covering a range that would allow survival of nonlethal mutants. The dilutions were made in Spizizen's minimal media with minute amounts of histidine and biotin (20 nM) each in […]. tubes. Each tube contained 3 ml. after dilution. Replicate 1 ml. aliquots of test organism were added to each tube including six "0" drug tubes. Final drug concentrations were calculated from 4-ml. volumes (3 ml. drug dilution +1 ml. test organism). Two of the "0" drug tubes were immediately plated at 10° dilution in minimal medium and 10^-5, 10^-6, 10^-7 dilutions in medium containing excess histidine (40 mcg/ml.) Spontaneous revertants (histidine+) were detected in the 10° dilution. Mutable population (histidine-) were detected in the 10^-5, 10^-6, and 10^-7 dilutions. All remaining dilutions were incubated in a Dubonoff shaker at 37° C. for 4 hr., then iced at 4° C. […] A 1-ml. aliquot from each "0" control was also plated at 10^-6, 10^-7, and 10^-8 dilutions in media with excess histidine to detect growth of mutable population (histidine-); normally there are 3-4 generations of the mutable population. All minimal media plates were counted. A dose response increase in revertants above spontaneous background indicated mutagenic potential of a test compound. […] Lethality has occurred to both populations, histidine+ and histidine-, at the same compound levels in all drugs tested to date.
The results are recorded as mutants test/mutants control.

[2] = system: Salmonella typhimurium G46 missense histidine-auxotroph; assay: Host mediated assay (in vivo mutagenicity), G46 indicator (Table 22); parameters: species or system Salmonella typhimurium in Cox white Swiss male mice; details: s.c.
Protocol: Cox white Swiss male mice 25-30 grams were used in all in vivo tests.
A. Drug Administration: Appropriate solvents were used where applicable with a solvent control run within each test. […] The organisms were grown to stationary phase, then diluted with normal saline to give an inoculum near 1×10^8 organisms per milliliter. The abdominal area of the drug-treated mouse was swabbed with alcohol and two milliliters of bacterial culture were injected into the abdominal cavity of the mouse. The mice were returned to their cages for 3-4 hours.
C. Autopsy and Recovery: The mice were sacrificed individually by cervical dislocation prior to each autopsy. The abdominal areas were soaked with ethanol. The peritoneum was bared and 2.5 ml. of sterile normal saline was injected into the peritoneal cavity using a sterile (3-ml. plastic syringe with a 20-gauge needle. After insertion, the needle is turned bevel up and the saline was expelled into the cavity; while the needle remains through the peritoneum, keeping the point of the needle in sight pressed against the peritoneal wall, the abdomen of the mouse was massaged to mix contents. The saline wash was removed from the abdominal cavity back into the syringe. The needle was removed and the contents expelled into an appropriately marked tube and iced 4° C.
D. Dilution and Plating: One-ml. samples were plated at 10° dilution on all mice to determine revertants (histidine+).
A one-milliliter sample from the untreated dilutions from control animals is plated 10^-6, 10^-7, and 10^-8 dilutions with excess histidine to determine mutable population (histidine-).

[3] = system: fatal glomerulonephritis in NZB/w mice; assay type: in vivo; details: for MST (mean survival time) / Percent Survivors: 300th day
Excerpt: NZB/w mice provide a close model of the human autoimmune disease, lupus erythematosis. These hybrid mice develop antinuclear antoantibody in the early months of life, which antibody becomes deposited in the glomeruli in the form of a complex with the inciting antigen. A fatal glomerulonephritis ensues. A group of these mice had been placed under continuous therapy (via the feed) with 1-(6-methoxy-2-benzothiazolyl)-3-) phenyl urea for 300 days. The mice were divided into three subgroups, 10 mice receiving 75 mg/kg/day of drug, 10 mice receiving 25 mg/kg/day, and 11 mice serving as untreated controls.
In view of the close parallel of this murine model to the human counterpart, this would appear of significance in terms of long-term human therapy.

[4] = system: twelve histidine-auxotrophs of Salmonella typhimurium; assay type: cell-based
Protocol: The in vivo and in vitro mutagenic potential of 1-(6-methoxy-2-benzothiazolyl)-3-phenyl-urea was negative when tested versus the twelve histidine-auxotrophs of Salmonella typhimurium at a level of 300 mg/kg in vivo and 750 mcg/ml in vitro. Imuran and Cytoxan, compounds with immunosuppressive activity; Streptozotacin, N-nitrosodimethylamine (DMNA) and trimethylenemelamine (TEM) known mutagens and/or carcinogens; and Acetylsalicylic Acid (ASA) were used as control compounds.
The plates were read as follows:
as §1
Eleven log4 dilutions of the test compound were made covering a range that would allow survival of nonlethal mutants. […] Final drug concentrations were calculated from 4-ml. volumes (3 ml. drug dilution +1 ml. test organism). Two of the "0" drug tubes were immediately plated at 10° dilution in minimal medium and 10^-5, 10^-6, 10^-7 dilutions in medium containing excess histidine (40 mcg/ml.) Spontaneous revertants (histidine+) were detected in the 10° dilution. Mutable population (histidine-) were detected in the 10^-5, 10^-6, and 10^-7 dilutions. […] All minimal media plates were counted. […]

[5] = system: mouse skin graft rejection (AKR skin on C3H mice); assay: Suppression of rejection of mouse-tail skin grafts (Table 19); assay type: in vivo, mice (C3H recipients, AKR donors); details: 50 mg/kg/2 days, POT vehicle, control 19.6 ± 1.3
Excerpt: Compounds disclosed herein have shown activity in suppressing the rejection of mouse skin grafts. […] Albino tail skin segments (AKR strain) were grafted onto the tails of groups of ten agouti recipient mice (C3H strain). Results achieved with two therapy regimens employing 1-(6-methoxy-2-benzothiazolyl)-3-phenyl urea were as follows:
*Treatment was commenced 3 days prior to grafting and continued every 2nd
**50% polyethylene glycol, 40% corn oil, 10% Tween 80

[6] = system: antibody to sheep red blood cells; assay: Oral immunoregulating activity in marmosets (Table 17); assay type: in vivo
Protocol: The animals in the treated group received 10 daily 100 mg/kg doses of the drug by oral gavage. On the 4th treatment day, these animals and a similar group of controls were given intraperitoneal injections of 1×10^9 sheep red blood cells. On the 12th day following antigen injection, serum levels of antibody were determined.
*Notation: Day 0 = day of antigen injection, Day -1 = day previous, Day +

[7] = 10 daily 100 mg/kg doses oral, individual marmoset, 100 mg/kg

COc1ccc2nc(NC(=O)Nc3ccccc3)sc2c1 [Table 11: phenyl, 6-CH3 O, S, 1-(6-methoxy-2-benzothiazolyl)-3-phenyl urea]
IN VITRO QUANTITATIVE MT/MC [1]: .90 | IN VIVO mutants test/mutants control ([2]; 3 mg/kg): .95 | IN VIVO mutants test/mutants control ([2]; 30 mg/kg): .95 | IN VIVO mutants test/mutants control ([2]; 300 mg/kg, MT/MC of 3 would indicate mutagenic potential): 1.2 | IN VIVO mutants test/mutants control ([2]; .3 mg/kg): 1.25 | MST (mean survival time) ([3]; 25 mg/kg/day in feed): 214 days | Percent Survivors ([3]; 25 mg/kg/day in feed): 60% | Day of Death ([3]; 75 mg/kg/day in feed, 10 mice, 300 days): 180,281 | MST (mean survival time) ([3]; 75 mg/kg/day in feed): 286 days | Percent Survivors ([3]; 75 mg/kg/day in feed): 80% | effect on survival parameters ([3]; 300 days of therapy, 25 and 75 mg/kg/day): A dose-related effect of the drug on survival parameters | effect on life span ([3]; female NZBxW mice): able to prolong the life of female NZBxW mice | in vitro mutagenic potential ([4]; 750 mcg/ml): negative | mutagenicity for point mutations (overall statement) ([4]; histidine- auxotrophs of Salmonella typhimurium): non-mutagenic | Allograft Survival (Days ± S.E.) ([5]; oral): 25.2 ± 2.0 Days | Allograft Survival (Days ± S.E.) ([5]; subcutaneous): 27.7 ± 1.0 Days | detectable antibody response ([6]; 10 daily 100 mg/kg doses by oral gavage, 12th day following antigen, control four out of five): none of the treated marmosets showed a detectable response | Weight Change (%) Day +6 to +19 [6, 7]: -6.8% and +9.1% and +6.0% and +5.7% | Weight Change (%) Day -7 to +6 [6, 7]: -18.8% and -6.2% and -21.4% and -5.7% and -8.2% | Antibody Titer (reciprocal) Day +12 ([6]; 10 daily 100 mg/kg doses oral, individual marmoset, Day 0 = antigen injection): < 5 | animals gaining weight by the 19th day ([6]; 10 daily 100 mg/kg doses oral, treated group): four of the five animals were gaining weight
